Each structure is given as a SMILES string. Structures can show the parent of a compound that is named as a salt.

As usually defined, the melting point is the temperature, or range, at which the solid turns liquid.

Take `Cc1cc2c(N3CCc4ccc(Cl)cc43)ncnc2cn1` [Example 16, 4-(6Chloro-2,3-dihydro-indol-1-yl)-6methyl-pyrido[3,4-d]pyrimidine]: the melting point was 232 to 234 °C.
The value for `C#Cc1cccc(Nc2ncnc3c2ccn3CCOCCOC)c1` [Example 13, (3-Ethynyl-phenyl)-{7-[2-(2-methoxy-ethoxy)-ethyl]-7H-pyrrolo[2,3-d]pyrimidin4-yl}amine] was 240 to 241 °C.
As for `c1cc2c(Nc3ccc4sccc4c3)ncnc2cn1` (as salt: hydrochloride) [Example 25, Benzo[b]thiophen-5-yl-pyrido[3,4-d]pyrimidin-4-yl-amine], the figure is 280 to 282 °C.
For `Cc1cc2c(N3CCc4ccc(Br)c(C)c43)ncnc2cn1.Cl`, the melting point was in the range of 212 to 229 °C.
Turning to `Clc1ccc2c(c1)N(c1ncnc3cnccc13)CC2` [Example 5, 4-(6-Chloro-2,3dihydro-indol-1-yl)-pyrido[3,4-d]pyrimidine], the melting point is 194 to 196 °C.
`Cc1cc2c(N3CCc4cc(F)c(Br)cc43)ncnc2cn1.Cl` came in with a melting point of 262 to 264 °C.
As for `Cc1cc2c(N3CCc4c(Br)ccc(C)c43)ncnc2cn1.Cl`, the figure is 232 to 244 °C; as for `C#Cc1cccc(Nc2ncnc3[nH]cc(-c4cccs4)c23)c1` [Example 27, (3-Ethynyl-phenyl)-(5-thiophen-2-yl-7H-pyrrolo[2,3-d]pyrimidin4-yl]-amine], 230 to 232 °C.
As for `Oc1cc2ncnc(N3CCc4ccc(Cl)cc43)c2[nH]1` [Example 10, 4-(6Chloro-2,3dihydro-indol-1-yl)-5H-pyrrolo[3,2-d]pyrimidin-6-ol], the melting point is 250 °C (dec.).
Compound `C#Cc1cccc(Nc2ncnc3cnccc23)c1` (as salt: hydrochloride) [Example 24, (3-Ethynyl-phenyl)-pyrido[3,4-d]pyrimidin-4-yl-amine] registered a melting point of 233 to 235 °C.
